Experimental data from patent US4073883A, “Method for treatment of impaired hearing” (priority 1976, dated 1978).

Columns and labels:
rats of Wistar strain [1] = test: Chronic oral toxicity test in rats (26 weeks); format: in vivo
Experimental: Coenzyme Q10 was compulsorily and orally administered to each group consisting of 10 male rats and 10 female rats of Wistar strain for 26 consecutive weeks in a ratio of 6 days a week. The dose was 6, 60 and 600 mg/Kg/day, respectively. Coenzyme Q10 was used in the form of gum Arabic suspension, whereas the solution containing gum Arabic alone is used as the control group. Collection of blood and urine samples and autopsies were carried out 26 weeks after the administration.

rats of Wistar strain [2] = test: Acute toxicity test in rats (single dose, 7 days observation); format: in vivo; details: for Maximum dose (no case of deaths): 7 days
Description: (§1) In order to evaluate the acute toxicity of a single high dose administration of Coenzyme Q10, male and female rats of Wistar strain and male and female mice of ICR-JCL strain were used, and oral, intramuscular, subcutaneous, and intravenous administrations were studied. For the oral administration of Coenzyme Q10, gum Arabic suspension was used. For the intramuscular, subcutaneous and intravenous administrations, Coenzyme Q10 was used as its solution in a nonionic surfactant, Nikkol HCO-60. Nikkol HCO-60 is a trade name of a non-ionic surfactant comprised of hydrogenated castor oil/polyoxyethylene-60 mole ether available from Nikko Chemicals, Co. Ltd., Japan.
(§2) Observations were carried out for 7 days by using six males and six females for each dose group.

[3] = system: patients having impaired hearing caused by administration of a drug; test: Clinical test on the administration of Coenzyme Q10 for impaired hearing (audiometry); format: in vivo, human
Experimental: 30 Mg/day of Coenzyme Q10 was administered perorally three times a day after meal. Duration of administration differed with patients in the range of from two weeks to four months.
Coenzyme Q10 was administered to 9 patients having impaired hearing caused by administration of a drug (an antibiotic called poison against hearing organs). 8 of 9 patients were being administered with some poison against hearing organs at the time of the first medical examination of otorhinology. The remaining one patient was given streptomycin more than 10 years before then. It was pointed out that labyrinthine disorder was observed already and the administration of the poisons against hearing organs was discontinued in 5 of the 8 cases. In the remaining 3 cases, the treatment of the diseases with the poisons against hearing organs was continued with administration of Coenzyme Q10.
In many cases, a combination of drugs such as combination of streptomycin (SM) with kanamycin (KM), kanendomycin (KDM) or gentamycin (GM) had been used.
Determination of hearing acuity threshold value in air conduction and bone conduction and recruitment test were effected using an audiometer in a sound-proof chamber.
The sum of the air conduction threshold value was determined in terms of decibel units and the values before and after the administration of Coenzyme Q10 were compared with each other.
Air condition region values at 125 Hz, 250 Hz, 1 KHz, 2 KHz, 4 KHz and 8 KHz in audiogram were added together to obtain a value called the total region value at that time. In case the difference in the value between before and after the administration of Coenzyme Q10 is more than ± 35 db, it was judged to be improved or worsened and in case the difference is within 35 db, it was judged to be unchanged. In case a threshold value of a certain frequency is scaled out, a value of the maximum output at that frequency plus 5 db. was employed.

mice of ICR-JCL strain = test: Acute toxicity test in mice (single dose, 7 days observation); format: in vivo; details: for Maximum dose (no case of deaths): 7 days
Description: as §1, §2

rats = test: Teratogenesis test in rats; format: in vivo; details: 6, 60 and 600 mg/Kg/day
rats of Wistar strain [4] = test: Subacute oral toxicity test in rats (5 weeks); format: in vivo
Experimental: Coenzyme Q10 was compulsorily and orally administered every day for 5 weeks to each group consisting of 10 male rats and 10 female rats of Wistar strain. The dose was 40, 200, and 1000 mg/Kg/day, respectively. Coenzyme Q10 was used in the form of gum Arabic suspension, while the solution containing gum Arabic alone was used as the control group. Collection of blood and urine samples and autopsies were carried out 5 weeks after the initiation of administration.

mice = test: Teratogenesis test in mice; format: in vivo; details: 6, 60 and 600 mg/Kg/day
rabbits = test: Subacute oral toxicity test in rabbits (23 days); format: in vivo
Experimental: Coenzyme Q10 was compulsorily and orally administered every day for 23 days to each group consisting of 6 male rabbits and 5 female rabbits. The dose was 6, 60 and 600 mg/Kg/day, respectively. Coenzyme Q10 was used in the form of gum Arabic suspension, whereas the solution containing gum Arabic alone was used as the control group. On the 24th day, blood samples were collected from all the animals, and 3 males and 2 females from each group were then selectively autopsied.

[5] = attributed to spontaneous pneumonia and aspiration pneumonia due to an erroneous administration
[6] = intramuscular, in Nikkol HCO-60, single dose
[7] = intravenous, in Nikkol HCO-60, single dose
[8] = oral, gum Arabic suspension, single dose
[9] = relative to maximum doses of Table 1
[10] = subcutaneous, in Nikkol HCO-60, single dose
[11] = 6, 60, 600 mg/Kg/day oral, 23 days

Question: Which results are given for `COC1=C(OC)C(=O)C(C/C=C(\C)CC/C=C(\C)CC/C=C(\C)CC/C=C(\C)CC/C=C(\C)CC/C=C(\C)CC/C=C(\C)CC/C=C(\C)CC/C=C(\C)CCC=C(C)C)=C(C)C1=O` [Coenzyme Q10]?
Answer: body weight vs control (rats of Wistar strain [1]; 6, 60, 600 mg/Kg/day oral, 26 weeks): increased as same as that of the control group; general condition vs control (rats of Wistar strain [1]; 6, 60, 600 mg/Kg/day oral, 26 weeks, 6 days a week): no difference; biochemical tests of blood and urine vs control (rats of Wistar strain [1]; 26 weeks): No significant changes were recognized; weight of organs (rats of Wistar strain [1]; 26 weeks): no significant increase and decrease; deaths, females (rats of Wistar strain [1]; [5]): 3 females; deaths, males (rats of Wistar strain [1]; [5]): 11 males; toxicity (rats of Wistar strain [1]; chronic oral, 26 weeks, overall): no toxicity was observed; macroscopical and histological observation vs control (rats of Wistar strain [1]; hemoxylin.Eosine staining and liver fat staining, 26 weeks): abnormalities were not recognized; leukocytal percentages (rats of Wistar strain [1]; not dose related, within the extent of physiological fluctuations): some increase and decrease; toxicity (overall, acute) (rats of Wistar strain [2]; acute, overall): extremely low; Maximum dose (no case of deaths) (rats of Wistar strain [2]; [6]): 500 mg/kg; Maximum dose (no case of deaths) (rats of Wistar strain [2]; [7]): 250 mg/kg; deaths (rats of Wistar strain [2]; maximum dose in each route): no case of deaths; Maximum dose (no case of deaths) (rats of Wistar strain [2]; [8]): 4000 mg/kg; LD50 (rats of Wistar strain [2]; [9]): far higher than the maximum dose; Maximum dose (no case of deaths) (rats of Wistar strain [2]; [10]): 500 mg/kg; effectiveness as a medicament for treating impaired hearing ([3]; overall conclusion): effective as a medicament for treating impaired hearing; ears improved (number of 18 ears) ([3]; with Coenzyme Q10, of 18 ears): 13 ears; ears improved (percent) ([3]; with Coenzyme Q10, of 18 ears): 72%; ears unchanged (number of 18 ears) ([3]; with Coenzyme Q10, of 18 ears): 5 ears; ears unchanged (percent) ([3]; with Coenzyme Q10, of 18 ears): 28%; worsening ([3]; with Coenzyme Q10, of 18 ears): no worsening being observed; toxicity (overall, acute) (mice of ICR-JCL strain; acute, overall): extremely low; Maximum dose (no case of deaths) (mice of ICR-JCL strain; [6]): 500 mg/kg; Maximum dose (no case of deaths) (mice of ICR-JCL strain; [7]): 250 mg/kg; deaths (mice of ICR-JCL strain; maximum dose in each route): no case of deaths; Maximum dose (no case of deaths) (mice of ICR-JCL strain; [8]): 4000 mg/kg; LD50 (mice of ICR-JCL strain; [9]): far higher than the maximum dose; Maximum dose (no case of deaths) (mice of ICR-JCL strain; [10]): 500 mg/kg; adverse effects in mothers, fetuses, and newborns (rats): no adverse effects; general condition and body weight vs control (rats of Wistar strain [4]; 40, 200, 1000 mg/Kg/day oral, 5 weeks): no difference; dead animals during the experiment (rats of Wistar strain [4]; attributed to spontaneous pneumonia and aspiration pneumonia due to an error of administration): 4 animals; toxicity seemingly due to the administration (rats of Wistar strain [4]; subacute oral, 5 weeks, overall): there was not recognized the toxicity; adverse effects in mothers, fetuses, and newborns (mice): no adverse effects; general condition and increase of body weight vs control (rabbits; [11]): no difference; weight of each organ (rabbits; [11]): no effect; electron-microscopic observation of liver (rabbits; 7th, 14th, and 24th days after the administration): there were not recognized abnormal findings; findings suggesting toxicity (rabbits; subacute oral, 23 days, overall): there were not recognized the findings
